Counter-ions that a name gives are not always drawn.

The subject of the first experiment is mice. Briefly: phenyl-p-quinone writhing assay in mice (analgesia). The format is in vivo. Conditions: Mus musculus, sc, 0.5 h, read-out: % Inhibition of Writhing. (In general: In writhing tests, fewer writhes than in controls are read as antinociception.)
Turning to `c1cc2c3c(c1)nc(C1CCNCC1)n3CCC2` [2-(4-Piperidinyl)-5,6-dihydro-4H-imidazo[4,5,1-ij]quinoline fumarate], the inhibition in vivo at 20 mg/kg is 31%.

As for `c1cc2c3c(c1)nc(N1CCNCC1)n3CCC2` [5,6-Dihydro-2-(1-piperazinyl)-4H-imidazo[4,5,1-ij]quinoline dihydrochloride], the inhibition in vivo at 20 mg/kg is 57%.

Staying with this experiment, now noted: Mus musculus, sc, 0.5 h; 20 mg/kg subcutaneous, 30 minutes before injection of phenylquinone; mice; read-out: % Inhibition of Writhing.
Regarding `c1ccc(CCN2CCN(c3nc4cccc5c4n3CCC5)CC2)cc1` [5,6-Dihydro-2-(4-phenylethyl-1-piperazinyl)-4H-imidazo[4,5,1-ij]quinoline], the inhibition in vivo at 20 mg/kg turned out to be 45%. For `c1cc2c3c(c1)nc(N1CCCCC1)n3CCC2` [5,6-Dihydro-2-(1-piperidinyl)-4H-imidazo[4,5.1-ij]quinoline hydrochloride], the inhibition in vivo at 20 mg/kg worked out at 68%. Still for that read-out and setting: the same measure for `c1cc2c3c(c1)nc(N1CCSCC1)n3CCC2` [5,6-Dihydro-2-(4-thiomorpholinyl)-4H-imidazo[4,5,1-ij]quinoline hydrochloride]: 53%; for `CN(C)C1CCN(c2nc3cccc4c3n2CCC4)CC1` [5,6-Dihydro-2-(4-dimethylamino-1-piperidinyl)-4H-imidazo[4,5,1-ij]quinolinefumarate]: 48%. Turning to `CCOC(=O)N1CCN(c2nc3cccc4c3n2CCC4)CC1` [Ethyl-4-[5,6-dihydro-4H-imidazo[4,5,1-ij]quinolin-2-yl]-1-piperazinecarboxylate fumarate], the inhibition in vivo at 20 mg/kg amounted to 47%. As to `CC(=O)N1CCC(c2nc3cccc4c3n2CCC4)CC1` [1-Acetyl-4-[5,6-dihydro-4H-imidazo[4,5,1-ij]quinolin-2-yl]piperidine], the inhibition in vivo at 20 mg/kg worked out at 51%. On the same count and under the same terms, the same measure for `Fc1ccc(C(CCCN2CCN(c3nc4cccc5c4n3CCC5)CC2)c2ccc(F)cc2)cc1` [4-[4,4-Bis(4-fluorophenyl)-butyl]-1-piperazinyl-5,6-dihydro-4H-imidazo[4,5,1-ij]quinoline]: 43%.

The same experiment, now with this note: Mus musculus, sc, read-out: % Inhibition of Writhing.
Take `CCC(=O)O[C@](Cc1ccccc1)(c1ccccc1)[C@H](C)CN(C)C` [propoxyphene, reference compound]: the inhibition in vivo at 5 mg/kg is 19%.

These data come from patent publication US5500423A, “5,6-dihydro-4H-imidazo[4,5,1-ij]quinolines” (Hoechst-Roussel Pharmaceuticals Inc., priority 1994, dated 1996).
